Earlier results as cited in US20090069433A1 (priority 2007, published 2009).

Conditions: pure capsaicinoid; background statement

## COc1cc(CNC(=O)CCCC/C=C/C(C)C)ccc1O [Capsaicin]
  pungency (Scoville scale): 15,000,000-16,000,000 Scoville units
